According to patent publication USRE46792E1, “Oxazole compound and pharmaceutical composition” (Otsuka Pharmaceutical Co., Ltd., priority 2005, dated 2018):

Biological target: human PDE4D3 (PDE4D) (Homo sapiens (Human), UniProt Q08499)
Assay: Phosphodiesterase (PDE)4 inhibitory activity evaluation test ([3H]cAMP hydrolysis by PDE4D enzyme solution)
Type: biochemical
Settings: recombinant human PDE4D3 expressed in COS-7 cells; [3H]cAMP substrate; 10 min at 30° C.; 2% DMSO
Description: Phosphodiesterase (PDE)4 Inhibitory Activity Evaluation Test
(1) Large Scale Plasmid Preparation
Plasmid containing genes (HPDE4D) coding for human PDE4D3 cDNA (stored in Otsuka America Pharmaceutical, Inc., Maryland Research Laboratories) was transformed in E. coli, cultured on a large scale, and purified using an EndoFree™ Plasmid Maxi Kit (Qiagen).
(2) Abundant Expression and Purification of PDE4D
COS-7 cells derived from African green monkey kidneys were passage cultured in D-MEM media containing 100 units/ml penicillin, 100 μg/ml streptomycin, and 10% FBS. The cells were transfected with the plasmid prepared in (1) above using Lipofectamine™ 2000 (hereinafter referred to as “LF2000”, Invitrogen), following the manufacturer's protocol. The COS-7 cells were inoculated in a 10 cm culture dish on the previous day so as to be 90% confluent on the day of transfection. Culture dishes each containing a plasmid solution (solution A) in which 24 μg of plasmid was diluted in 1.5 ml Opti-MEM I Reduced Serum Medium (Invitrogen) and an LF2000 solution (solution B) in which 60 μl of LF2000 was diluted in 1.5 ml Opti-MEM I Reduced Serum Medium were separately allowed to stand for 5 minutes at room temperature. Solutions A and B were then mixed and the mixture was allowed to stand for 20 minutes at room temperature. The mixture was added to the cultured cells, and incubated at 37° C. (5% CO2) overnight. On the following day, the medium was replaced, and the mixture was further incubated overnight to harvest the cells in the following manner. The cells were washed with PBS (Sigma) once, and 10 ml of a Trypsin-EDTA solution (Sigma) was added to each culture dish. After the solution was distributed to each of the culture dishes, the cells were detached, and the dishes were allowed to stand for about 5 minutes at 37° C. The detached cells from the dishes were suspended in media, collected into centrifuge tubes, and centrifuged at 1200 rpm for 5 minutes at 4° C., and supernatants were removed. The cells were further washed with PBS, and stored at −80° C. KHEM buffer (100 mM Hepes, 50 mM KCl, 10 mM EGTA, 1.92 mM MgCl2, pH 7.4) containing 1 mM DTT, 1 μg/ml antipain, 1 μg/ml aprotinin, 1 μg/ml leupeptin, 1 μg/ml pepstatin A, 157 μg/ml benzamidine, and 120 μg/ml Pefabloc SC was added to the stored cells, and the contents were moved to a glass homogenizer to be homogenized on ice. The cell suspension was centrifuged at 1000 rpm for 5 minutes at 4° C., and the supernatant was further centrifuged at 14000 rpm for one hour. After centrifugation, the supernatant was dispensed into new tubes as PDE4D enzyme solutions, and stored in a deep freezer.
(3) Determination on Dilution Ratio of PDE4D Enzyme Solutions
The PDE4D enzyme solutions prepared in (2) above were dissolved in 20 mM Tris-HCl solution (pH 7.4) to give 10-, 25-, 50-, 100-, 200-, 400-, and 800-fold dilutions of the enzyme solutions. PDE4D activities were measured according to (4) below. The percentage of catalyzed cAMP to total cAMP was calculated, and such a dilution, in which the percentage was between 10% and 30%, was adopted in the inhibitory study below.
(4) Measurement of PDE4D Inhibitory Activity
Necessary amounts of test compounds were weighed, and 100% dimethylsulfoxide (DMSO) was added thereto to adjust the concentration to 10 mM. The solutions were stored in a freezer as stock solutions of each test compound. After being thawed when required, the solutions were diluted 20-fold with 100% DMSO to give a 500 μM concentration. Further, 10-fold serial dilutions were made with 100% DMSO to prepare test compounds of different concentrations. 2 μl of solutions containing one of each of the test compound were separately added into 1.2 ml tubes in which 23 μl of 20 mM Tris-HCl (pH 7.4) had been placed beforehand. […]

Chain of human PDE4D3 (PDE4D) (Q08499 other isoform, or with tags, fused parts or gaps): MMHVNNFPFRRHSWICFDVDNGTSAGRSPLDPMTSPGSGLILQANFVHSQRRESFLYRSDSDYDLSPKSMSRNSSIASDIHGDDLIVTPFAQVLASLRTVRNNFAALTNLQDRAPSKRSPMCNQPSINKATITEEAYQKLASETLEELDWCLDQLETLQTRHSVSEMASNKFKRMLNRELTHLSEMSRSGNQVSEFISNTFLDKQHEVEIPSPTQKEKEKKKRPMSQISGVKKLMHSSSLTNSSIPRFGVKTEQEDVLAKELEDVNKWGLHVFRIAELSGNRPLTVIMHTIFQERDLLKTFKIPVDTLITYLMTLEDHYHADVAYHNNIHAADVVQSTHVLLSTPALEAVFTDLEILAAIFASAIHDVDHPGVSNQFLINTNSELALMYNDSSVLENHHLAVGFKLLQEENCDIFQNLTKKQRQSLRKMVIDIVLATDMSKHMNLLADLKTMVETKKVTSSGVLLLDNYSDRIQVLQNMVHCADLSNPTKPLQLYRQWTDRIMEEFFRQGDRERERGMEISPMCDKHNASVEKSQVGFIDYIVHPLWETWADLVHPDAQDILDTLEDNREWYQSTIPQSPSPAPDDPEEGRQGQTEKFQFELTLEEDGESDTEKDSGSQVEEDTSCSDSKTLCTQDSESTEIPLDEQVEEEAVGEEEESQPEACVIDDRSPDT

Row | Compound | IC50 [nM]
1 | 3-[2-(3-hydroxy-4-methoxyphenyl)oxazol-4-yl]-1-(2-methoxymethoxy phenyl)propan-1-one [Example 232] | < 50
2 | CCOc1ccccc1C(=O)NCc1coc(-c2ccc(OC)c(OCC(C)C)c2)n1 [Example 14, N-[2-(3-isobutoxy-4-methoxyphenyl)oxazol-4-ylmethyl]-2-ethoxy benzamide] | < 50
3 | COc1ccc(-c2nc(CNC(=O)c3ncccc3C)co2)cc1OCC(F)(F)F [Example 19, N-{2-[4-methoxy-3-(2,2,2-trifluoroethoxy)phenyl]oxazol-4-ylmethyl}-3-methylpicolinamide] | < 50
4 | C=CCOc1cc(-c2nc(CNC(=O)c3ncccc3C)co2)ccc1OC [Example 21, N-[2-(3-allyloxy-4-methoxyphenyl)oxazol-4-ylmethyl]-3-methylpicolinamide] | < 50
5 | COc1ccc(-c2nc(CNC(=O)c3ncccc3C)co2)cc1OC1Cc2ccccc2C1 [Example 22, N-{2-[3-(indan-2-yloxy)-4-methoxyphenyl]oxazol-4-ylmethyl}-3-methylpicolinamide] | < 50
6 | CCOc1cccnc1C(=O)NCc1coc(-c2ccc(OC)c(OC3CCCC3)c2)n1 [Example 29, N-[2-(3-cyclopentyloxy-4-methoxyphenyl)oxazol-4-ylmethyl]-3-ethoxypicolinamide] | < 50
7 | COc1ccc(-c2nc(CNC(=O)c3ccccc3OCC(F)(F)F)co2)cc1OCC1CC1 [Example 32, N-[2-(3-cyclopropylmethoxy-4-methoxyphenyl)oxazol-4-ylmethyl]-2-(2,2,2-trifluoroethoxy)benzamide] | < 50
8 | COc1ccc(-c2nc(CNC(=O)c3ccccc3OC)co2)cc1OC1CCCC1 [Example 35, N-[2-(3-cyclopentyloxy-4-methoxyphenyl)oxazol-4-ylmethyl]-2-methoxybenzamide] | < 50
9 | COc1ccc(-c2nc(CNC(=O)c3ncccc3C)co2)cc1OCC1CC1 [Example 36, N-[2-(3-cyclopropylmethoxy-4-methoxyphenyl)oxazol-4-ylmethyl]-3-methylpicolinamide] | < 50
10 | COc1ccc(-c2nc(CNC(=O)c3ccc(F)cc3OC)co2)cc1OCC1CC1 [Example 42, N-[2-(3-cyclopropylmethoxy-4-methoxyphenyl)oxazol-4-ylmethyl]-4-fluoro-2-methoxybenzamide] | < 50
11 | COc1ccc(-c2nc(CNC(=O)c3ccccc3SC)co2)cc1OCC1CC1 [Example 44, N-[2-(3-cyclopropylmethoxy-4-methoxyphenyl)oxazol-4-ylmethyl]-2-methylsulfanylbenzamide] | < 50
12 | CCCOc1cccnc1C(=O)NCc1coc(-c2ccc(OC)c(OCC3CC3)c2)n1 [Example 61] | < 50
13 | COc1ccc(-c2nc(CNC(=O)c3ncccc3C)co2)cc1OCC(C)C [Example 62, N-[2-(3-isobutoxy-4-methoxyphenyl)oxazol-4-ylmethyl]-3-methylpicolinamide] | < 50
14 | COc1ccc(-c2nc(CNC(=O)c3ccccc3OC)co2)cc1OCC(C)C [Example 63, N-[2-(3-isobutoxy-4-methoxyphenyl)oxazol-4-ylmethyl]-2-methoxybenzamide] | < 50
15 | Cc1cccnc1C(=O)NCc1coc(-c2ccc(OC(F)F)c(OCC3CC3)c2)n1 [Example 98, N-[2-(3-cyclopropylmethoxy-4-difluoromethoxyphenyl)oxazol-4-ylmethyl]-3-methylpicolinamide] | < 50
16 | CCOc1ccccc1C(=O)CCc1coc(-c2ccc(OC)c(OCC3CC3)c2)n1 [Example 102, 3-[2-(3-cycropropylmethoxy-4-methoxyphenyl)oxazol-4-yl]-1-(2-ethoxyphenyl)propan-1-one] | < 50

Row | Compound | IC50 [nM]
17 | CCOc1cc(-c2nc(CCC(=O)c3ccccc3OCC)co2)ccc1OC [Example 103, 3-[2-(3-ethoxy-4-methoxyphenyl)oxazol-4-yl]-1-(2-ethoxyphenyl)propan-1-one] | < 50
18 | C=CCOc1cc(-c2nc(CCC(=O)c3ccccc3OCC)co2)ccc1OC [Example 104, 3-[2-(3-allyloxy-4-methoxyphenyl)oxazol-4-yl]-1-(2-ethoxyphenyl)propan-1-one] | < 50
19 | C=CCCOc1cc(-c2nc(CCC(=O)c3ccccc3OCC)co2)ccc1OC [Example 108, 3-[2-(3-(3-butenyloxy)-4-methoxyphenyl)oxazol-4-yl]-1-(2-ethoxyphenyl)propan-1-one] | < 50
20 | CCOc1ccccc1C(=O)CCc1coc(-c2ccc(OC)c(OC(C)C)c2)n1 [Example 111, 1-(2-ethoxyphenyl)-3-[2-(3-isopropoxy-4-methoxyphenyl)oxazol-4-yl]propan-1-one] | < 50
21 | CCOc1ccccc1C(=O)CCc1coc(-c2ccc(OC)c(OCC(F)(F)F)c2)n1 [Example 112, 1-(2-ethoxyphenyl)-3-{2-[4-methoxy-3-(2,2,2-trifluoroethoxy)phenyl]oxazol-4-yl}propan-1-one] | < 50
22 | CCOc1ccccc1C(=O)CCc1coc(-c2ccc(OC)c(OCC3CCC3)c2)n1 [Example 116, 3-[2-(3-cyclobutylmethoxy-4-methoxyphenyl)oxazol-4-yl]-1-(2-ethoxyphenyl)propan-1-one] | < 50
23 | COc1ccc(-c2nc(CCC(=O)c3ncccc3OC)co2)cc1OCC(F)(F)F [Example 129, 1-(3-methoxypyridin-2-yl)-3-{2-[4-methoxy-3-(2,2,2-trifluoroethoxy)phenyl]oxazol-4-yl}propan-1-one] | < 50
24 | CCOc1cccnc1C(=O)CCc1coc(-c2ccc(OC)c(OC3CCCC3)c2)n1 [Example 132, 3-[2-(3-cyclopentyloxy-4-methoxyphenyl)oxazol-4-yl]-1-(3-ethoxypyridin-2-yl)propan-1-one] | < 50
25 | CCOc1cccnc1C(=O)CCc1coc(-c2ccc(OC)c(OCC3CC3)c2)n1 [Example 133, 3-[2-(3-cyclopropylmethoxy-4-methoxyphenyl)oxazol-4-yl]-1-(3-ethoxypyridin-2-yl)propan-1-one] | < 50
26 | COc1ccc(-c2nc(CCC(=O)c3ncccc3C)co2)cc1OCC1CC1 [Example 137, 3-[2-(3-cyclopropylmethoxy-4-methoxyphenyl)oxazol-4-yl]-1-(3-methylpyridin-2-yl)propan-1-one] | < 50
27 | CCOc1cc(-c2nc(CCC(=O)c3ncccc3C)co2)ccc1OC [Example 138, 3-[2-(3-ethoxy-4-methoxyphenyl)oxazol-4-yl]-1-(3-methylpyridin-2-yl)propan-1-one] | < 50
28 | COc1ccc(-c2nc(CCC(=O)c3ncccc3C)co2)cc1OC(C)C [Example 139, 3-[2-(3-isopropoxy-4-methoxyphenyl)oxazol-4-yl]-1-(3-methylpyridin-2-yl)propan-1-one] | < 50
29 | C=CCOc1cc(-c2nc(CCC(=O)c3ncccc3C)co2)ccc1OC [Example 140, 3-[2-(3-allyloxy-4-methoxyphenyl)oxazol-4-yl]-1-(3-methylpyridin-2-yl)propan-1-one] | < 50
30 | COc1ccc(-c2nc(CCC(=O)c3ncccc3C)co2)cc1OCC1CCC1 [Example 141, 3-[2-(3-cyclobutylmethoxy-4-methoxyphenyl)oxazol-4-yl]-1-(3-methylpyridin-2-yl)propan-1-one] | < 50
31 | CCCOc1cc(-c2nc(CCC(=O)c3ncccc3C)co2)ccc1OC [Example 143, 3-[2-(4-methoxy-3-propoxyphenyl)oxazol-4-yl]-1-(3-methylpyridin-2-yl)propan-1-one] | < 50
